Entries after “also recorded” stand apart in the source; their conditions may differ.
Experiments:
[1] = system: rats during surgery under isoflurane anesthesia; design: species or system Sprague-Dawley rat; conditions: rat, in vivo
conscious humans = conditions: cited from earlier work
[2] = system: human patients during general anesthesia and surgery; conditions: administered 90 minutes before anesthesia; cited from earlier work
[3] = system: isoflurane-anesthetized rats under surgery; assay: Renal response to drug given after start of surgery and isoflurane anesthesia; assay type: in vivo, Sprague-Dawley rat
conscious rats [4] = assay: E-2078 effect on urine flow and sodium excretion in conscious rats (Salas et al.); assay type: in vivo, rat; conditions: 50 μg i.v., after 15-30 minutes
conscious rats [5] = conditions: 50 μg i.v., cited from earlier work
[6] = system: rats anesthetized with pentobarbital; conditions: 50 μg i.v.; cited from earlier work
[7] = conscious healthy humans (Rimoy 1991)
[8] = intravenous bolus injection during isoflurane anesthesia and surgery

Question: With CN1c2ccccc2C(c2ccccc2F)=NCC1CNC(=O)c1ccsc1 (single isomer, unassigned; (+)) [tifluadom, (+)-(1-methyl-2,3-thienyl-carboxyl)-aminomethyl-5-(2-fluorophenyl)H-2,3-dihydro-1,4-benzodiazepine] as the compound, how does the “effect on urine flow rate during surgery and isoflurane anesthesia” value [1] read?
Answer: The value was “remained steady (time 10) and consistently increased over time (time 20-90) until a plateau was reached (time 100-120)”.

Question: What about the urinary potassium excretion [1] of the same compound?
Answer: Its urinary potassium excretion is “remained low”.

Question: What about the urinary sodium excretion [1] of the same compound?
Answer: The urinary sodium excretion was “remained low”.

Question: And the urine flow rate [1]?
Answer: Its urine flow rate is 20 µL/min.

Question: And the urine osmolality [1]?
Answer: Its urine osmolality is “remained low”.

Question: Which results are given for C=C1CC2(CCC(N3CCCC3)C(N(C)C(=O)Cc3ccc(Cl)c(Cl)c3)C2)OC1=O (stereo not shown) [U-62,066E, 3,4-dichloro-N-methyl-N-(3-methylene-2-oxo-8-(1-pyrrolidinyl)-1-oxaspiro(4,5)dec-7-yl)-benzeneacetamide]?
Answer: urinary potassium excretion [1]: gradual increase; also recorded: significant and steady increase toward a new plateau level; urinary sodium excretion [1]: remained low throughout the duration of the experiment; urine flow rate [1]: remained elevated throughout the 6 hours of the study; central nervous system effects (conscious humans; 3.2 μg/kg dose): sedation, significant dysphoria, and no significant euphoria; diuretic response (conscious humans; 5 μg/kg intramuscular): pronounced diuretic response; sodium, potassium, or chloride excretion (conscious humans; 2 to 6 μg/kg intramuscular): without increases in sodium, potassium, or chloride excretion; water diuresis (conscious humans; 2 to 6 μg/kg intramuscular): induced water diuresis; urine osmolality (conscious humans; [7]): decreased urine osmolality; urine output (conscious humans; [7]): significantly increased urine output; diuretic potency relative to U-50,488H (conscious humans; in vivo): about twice as potent a diuretic as U-50,488H

Question: For Clc1cccc(Cl)c1N=C1NCCN1 [clonidine], which diuresis [2] is on record?
Answer: Its diuresis is “significant diuresis during surgery”.

Question: What about the “losses of sodium and potassium” value [2] of the same compound?
Answer: The value was “substantial losses of sodium and potassium”.

Question: And the “mean arterial pressure and heart rate” value [2]?
Answer: Its value is “substantial decrease in mean arterial pressure and heart rate”.

Question: With NS(=O)(=O)c1cc(C(=O)O)c(NCc2ccco2)cc1Cl [furosemide] as the compound, how does the “effect on urine flow rate” value ([3]; continuous intravenous infusion after start of surgery and isoflurane (U-50,488H 100 μg/kg/min)) read?
Answer: The value was “returned to the impaired pre-drug levels”.

Question: What about the “urine flow rate, peak” value ([3]; continuous intravenous infusion after start of surgery and isoflurane (U-50,488H 100 μg/kg/min), saline infusion 55 μl/min) of the same compound?
Answer: Its value is “about 200 μl/min”.

Question: And the “course of urine flow rate after the peak” value [3, 8]?
Answer: The value was “declined rapidly”.

Question: And the “urine flow rate, peak” value [3, 8]?
Answer: The value was “about 300 μl/min”.

Question: For OC[C@@H](O)[C@@H](O)[C@H](O)[C@H](O)CO [mannitol], which “course of urine flow rate after the peak” value [3, 8] is on record?
Answer: The value was “not maintained and declined to the impaired levels observed before drug administration”.

Question: And the urinary potassium excretion [3, 8]?
Answer: The urinary potassium excretion was “increase in urinary sodium and potassium excretion”.

Question: And the urinary sodium excretion [3, 8]?
Answer: The urinary sodium excretion was “increase in urinary sodium and potassium excretion”.

Question: What about the “urine flow rate, peak” value [3, 8] of the same compound?
Answer: The value was “up to 135 μl/min”.

Question: For “(N-methyl-Tyr^1,N-methyl-Arg^7-D-Leu^8)-dynorphin-A(1-8) ethylamide [E-2078]”, which “increase over the baseline flow rate” value (conscious rats [4]) is on record?
Answer: The value was 78 µL/min.

Question: And the urine flow rate (conscious rats [5]; after 15-30 minutes)?
Answer: Its urine flow rate is 118 ± 22 µL/min.

Question: And the urinary sodium excretion (conscious rats [5]; at 30-45 min)?
Answer: The urinary sodium excretion was 1.4±0.4 μEq/min.

Question: And the urinary sodium excretion [6]?
Answer: The urinary sodium excretion was 0.3±0.1 μEq/min.

Question: What about the urine flow rate [6] of the same compound?
Answer: The urine flow rate was 6.3 ± 1.0 µL/min.

Source: patent publication US6468971B1, “Maintaining kidney function during surgery or trauma” (Board of Supervisors of Louisiana State University and …, priority 1998, dated 2002)
